Assay results published in patent publication US5422341A, “Motilin-like polypeptides with gastrointestinal motor stimulating activity” (Ohmeda Pharmaceutical Products Division Inc., priority 1993, dated 1995).
Where “and” joins values, the source holds several entries; their conditions need not be identical. Equal values may be shown once. Square brackets hold non-standard residues; d marks the D form. Peptide text beside a SMILES is read from it. * marks the point of attachment. X3 = C#CC[N+](C)(C)[C@@H](Cc1ccccc1)C(=O)*; X5 = C=CC[N+](C)(C)[C@@H](Cc1ccccc1)C(=O)*; X1 = C[N+](C)(C)[C@@H](Cc1ccccc1)C(=O)*; X2 = C#CCN(C)[C@@H](Cc1ccccc1)C(=O)*; Cha = N[C@@H](CC1CCCCC1)C(=O)O

Legend:
[1] = biological target: T1, motilin receptor (Oryctolagus cuniculus, UniProt G1T803); test: Determination of motilin receptor binding affinity (displacement of [125I-Tyr7, Nle13]motilin(porcine)); design: species or system rabbit; conditions: negative logarithm of the concentration displacing 50% of [125I-Tyr7, Nle13]motilin(porcine) from rabbit antral smooth muscle membranes; read-out: pIC50 (converted)
T1 construct: from tissue; host or cells: rabbit antral smooth muscle membranes
T1 sequence (G1T803 1-400): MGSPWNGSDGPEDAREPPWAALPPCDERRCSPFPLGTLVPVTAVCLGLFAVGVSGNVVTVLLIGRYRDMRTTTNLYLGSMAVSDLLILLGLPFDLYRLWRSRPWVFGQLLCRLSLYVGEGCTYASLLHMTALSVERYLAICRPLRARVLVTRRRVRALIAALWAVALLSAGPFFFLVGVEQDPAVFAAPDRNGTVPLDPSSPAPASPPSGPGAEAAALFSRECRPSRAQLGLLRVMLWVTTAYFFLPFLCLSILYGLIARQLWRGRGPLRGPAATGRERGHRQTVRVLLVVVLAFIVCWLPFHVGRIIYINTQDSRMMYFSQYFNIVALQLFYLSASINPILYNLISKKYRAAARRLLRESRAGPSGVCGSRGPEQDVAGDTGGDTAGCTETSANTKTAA
Experimental: The motilin receptor binding affinity of the peptides of this invention was determined by using the general procedure of Bormans, Peelers and Vantrappen, Regul. […] Fitting was performed using the iterative least-squares procedure of the SAS-software package (SAS Institute, Inc., Cary, N.C., USA).

[2] = biological target: segments of rabbit duodenum (Oryctolagus cuniculus, UniProt G1T803); test: Rabbit duodenal smooth muscle strip tissue bath assay; type: cell-based; conditions: negative logarithm of the dose giving 50% of the maximal response to motilin; isotonic contraction of rabbit duodenum segments
Chain of segments of rabbit duodenum (G1T803 1-400): as above
Experimental: The contractile response of segments of rabbit duodenum was determined isotonically in the tissue bath according to the procedure of Depoortere et at., J. Gastrointestinal Motility, 1, 150-159 (1989). The experimental protocol consisted of an equilibration period of 1 hour; a challenge with 10^-4 M acetylcholine followed by a wash-out period; a cumulative dose-response curve of a compound with, at the end, the addition of 10^-7 M motilin; and finally 10^-4 M acetylcholine. If the final response to 10^-4 M acetylcholine differed by more than 5% from the initial response, the results were discarded. The compounds were tested in the concentration range 10^-11 to 10^-4 M. The point corresponding to 50% of the maximal response to motilin (Emax) was determined by fitting the equation E=Emax (1+EC50 /[L]) through the data points. […] The dose giving 50% of the response is expressed using its negative logarithm (pEC50).

Structure (SMILES) | IC50 [1] | pEC50 [2]
CC[C@H](C)[C@H](NC(=O)[C@H](C)NC(=O)[C@@H](NC(=O)[C@H](Cc1ccccc1)[N+](C)(C)C)C(C)C)C(=O)N[C@@H](Cc1ccccc1)C(=O)N[C@H](C(=O)N[C@@H](Cc1ccc(O)cc1)C(=O)NCC(=O)N[C@@H](CCC(=O)O)C(=O)N[C@@H](CC(C)C)C(=O)N[C@@H](CCC(N)=O)C(=O)N[C@H](CCCNC(=N)N)C(=O)N[C@@H](CC(C)C)C(=O)N[C@H](CCC(N)=O)C(N)=O)[C@@H](C)O (X1-VAIFTYGELQ[dR]L[dQ]-NH2) | 1.41 nM | 7.20
CC[C@H](C)[C@H](NC(=O)[C@@H]1CCCN1C(=O)[C@@H](NC(=O)[C@H](Cc1ccccc1)[N+](C)(C)C)C(C)C)C(=O)N[C@@H](Cc1ccccc1)C(=O)N[C@H](C(=O)N[C@@H](Cc1ccc(O)cc1)C(=O)NCC(=O)N[C@@H](CCC(=O)O)C(=O)N[C@@H](CC(C)C)C(=O)N[C@@H](C)C(=O)N[C@H](CCCNC(=N)N)C(=O)N[C@@H](CC(C)C)C(=O)N[C@H](CCC(N)=O)C(N)=O)[C@@H](C)O (X1-VPIFTYGELA[dR]L[dQ]-NH2) | 2.45 nM | 7.25
CC[C@H](C)[C@H](NC(=O)[C@@H]1CCCN1C(=O)[C@@H](NC(=O)[C@H](Cc1ccccc1)[N+](C)(C)C)C(C)C)C(=O)N[C@@H](Cc1ccccc1)C(=O)N[C@H](C(=O)N[C@@H](Cc1ccc(O)cc1)C(=O)NCC(=O)N[C@@H](CCC(=O)O)C(=O)N[C@@H](CC(C)C)C(=O)N[C@@H](CCC(N)=O)C(=O)N[C@@H](CCCNC(=N)N)C(=O)N[C@@H](CC(C)C)C(=O)N[C@@H](CCC(N)=O)C(N)=O)[C@@H](C)O (X1-VPIFTYGELQRLQ-NH2) | 2.69 nM | 7.48
CC[C@H](C)[C@H](NC(=O)[C@@H]1CCCN1C(=O)[C@@H](NC(=O)[C@H](Cc1ccccc1)[N+](C)(C)C)C(C)C)C(=O)N[C@@H](Cc1ccccc1)C(=O)N[C@H](C(=O)N[C@@H](Cc1ccc(O)cc1)C(=O)NCC(=O)N[C@@H](CCC(=O)O)C(=O)N[C@@H](CC(C)C)C(=O)N[C@@H](CCC(N)=O)C(=O)N[C@H](CCCNC(=N)N)C(=O)N[C@@H](CC(C)C)C(=O)N[C@@H](CCC(N)=O)C(=O)O)[C@@H](C)O (X1-VPIFTYGELQ[dR]LQ-OH) | 3.55 nM and 2.14 nM | 7.52
C#CCN(C)[C@@H](Cc1ccccc1)C(=O)N[C@H](C(=O)N1CCC[C@H]1C(=O)N[C@H](C(=O)N[C@@H](Cc1ccccc1)C(=O)N[C@H](C(=O)N[C@@H](Cc1ccc(O)cc1)C(=O)NCC(=O)N[C@@H](CCC(=O)O)C(=O)N[C@@H](CC(C)C)C(=O)N[C@@H](CCC(N)=O)C(=O)N[C@@H](CCCNC(=N)N)C(=O)N[C@@H](CC(C)C)C(=O)N[C@@H](CCC(N)=O)C(N)=O)[C@@H](C)O)[C@@H](C)CC)C(C)C (X2-VPIFTYGELQRLQ-NH2) | 2 nM | 7.57
C#CC[N+](C)(C)[C@@H](Cc1ccccc1)C(=O)N[C@H](C(=O)N1CCC[C@H]1C(=O)N[C@H](C(=O)N[C@@H](Cc1ccccc1)C(=O)N[C@H](C(=O)N[C@@H](Cc1ccc(O)cc1)C(=O)NCC(=O)N[C@@H](CCC(=O)O)C(=O)N[C@@H](CC(C)C)C(=O)N[C@@H](CCC(N)=O)C(=O)N[C@@H](CCCNC(=N)N)C(=O)N[C@@H](CC(C)C)C(=O)N[C@@H](CCC(N)=O)C(N)=O)[C@@H](C)O)[C@@H](C)CC)C(C)C (X3-VPIFTYGELQRLQ-NH2) | 2.14 nM | 7.65
C=CC[N+](C)(C)[C@@H](Cc1ccccc1)C(=O)N[C@H](C(=O)N1CCC[C@H]1C(=O)N[C@H](C(=O)N[C@@H](Cc1ccccc1)C(=O)N[C@H](C(=O)N[C@@H](Cc1ccc(O)cc1)C(=O)NCC(=O)N[C@@H](CCC(=O)O)C(=O)N[C@@H](CC(C)C)C(=O)N[C@@H](CCC(N)=O)C(=O)N[C@@H](CCCNC(=N)N)C(=O)N[C@@H](CC(C)C)C(=O)N[C@@H](CCC(N)=O)C(N)=O)[C@@H](C)O)[C@@H](C)CC)C(C)C (X5-VPIFTYGELQRLQ-NH2) | 1.74 nM | 7.47
CC[C@H](C)[C@H](NC(=O)[C@@H]1CCCN1C(=O)[C@@H](NC(=O)[C@@H](N)Cc1ccccc1)C(C)C)C(=O)N[C@@H](CC1CCCCC1)C(=O)N[C@H](C(=O)N[C@@H](Cc1ccc(O)cc1)C(=O)NCC(=O)N[C@@H](CCC(=O)O)C(=O)N[C@@H](CC(C)C)C(=O)N[C@@H](CCC(N)=O)C(=O)N[C@H](CCCNC(=N)N)C(=O)N[C@@H](CC(C)C)C(=O)N[C@@H](CCC(N)=O)C(N)=O)[C@@H](C)O [H-Phe-Val-Pro-Ile-Cha-Thr-Tyr-Gly-Glu-Leu-Gln-D-Arg-Leu-Gln-NH2] (H-FVPI[Cha]TYGELQ[dR]LQ-NH2) | 6.76 nM | 7.30
CC[C@H](C)[C@H](NC(=O)[C@H](C)NC(=O)[C@@H](NC(=O)[C@@H](N)Cc1ccccc1)C(C)C)C(=O)N[C@@H](Cc1ccccc1)C(=O)N[C@H](C(=O)N[C@@H](Cc1ccc(O)cc1)C(=O)NCC(=O)N[C@@H](CCC(=O)O)C(=O)N[C@@H](CC(C)C)C(=O)N[C@@H](CCC(N)=O)C(=O)N[C@H](CCCNC(=N)N)C(=O)N[C@@H](CC(C)C)C(=O)N[C@@H](CCC(N)=O)C(=O)O)[C@@H](C)O [[Ala^3, D-Arg^ 12, Leu^13]pMOT(1-14)] (H-FVAIFTYGELQ[dR]LQ-OH) | 2.14 nM | 7.71
CC[C@H](C)[C@H](NC(=O)[C@@H]1CCCN1C(=O)[C@@H](NC(=O)[C@@H](N)Cc1ccccc1)C(C)C)C(=O)N[C@@H](Cc1ccccc1)C(=O)N[C@H](C(=O)N[C@@H](Cc1ccc(O)cc1)C(=O)NCC(=O)N[C@@H](CCC(=O)O)C(=O)N[C@@H](CC(C)C)C(=O)N[C@@H](C)C(=O)N[C@H](CCCNC(=N)N)C(=O)N[C@@H](CC(C)C)C(=O)N[C@@H](CCC(N)=O)C(=O)O)[C@@H](C)O [[Ala^11, D-Arg^12, Leu^13]pMOT(1-14)] (H-FVPIFTYGELA[dR]LQ-OH) | 1.66 nM | 7.63
CC[C@H](C)[C@H](NC(=O)[C@@H]1CCCN1C(=O)[C@@H](NC(=O)[C@@H](N)CC1CCCCC1)C(C)C)C(=O)N[C@@H](Cc1ccccc1)C(=O)N[C@H](C(=O)N[C@@H](Cc1ccc(O)cc1)C(=O)NCC(=O)N[C@@H](CCC(=O)O)C(=O)N[C@@H](CC(C)C)C(=O)N[C@@H](CCC(N)=O)C(=O)N[C@H](CCCNC(=N)N)C(=O)N[C@@H](CC(C)C)C(=O)N[C@@H](CCC(N)=O)C(=O)O)[C@@H](C)O [[Cha^1, D-Arg^12, Leu^13]pMOT(1-14)] (H-[Cha]VPIFTYGELQ[dR]LQ-OH) | 1.78 nM | 7.60
CC[C@H](C)[C@H](NC(=O)[C@@H]1CCCN1C(=O)[C@@H](NC(=O)[C@@H](N)Cc1ccccc1)C(C)C)C(=O)N[C@@H](Cc1ccccc1)C(=O)N[C@H](C(=O)N[C@@H](Cc1ccc(O)cc1)C(=O)N[C@H](C)C(=O)N[C@@H](CCC(=O)O)C(=O)N[C@@H](CC(C)C)C(=O)N[C@@H](CCC(N)=O)C(=O)N[C@H](CCCNC(=N)N)C(=O)N[C@@H](CC(C)C)C(=O)N[C@@H](CCC(N)=O)C(=O)O)[C@@H](C)O [[D-Ala^8, D-Arg^12, Leu^13]pMOT(1-14), H-Phe-Val-Pro-Ile-Phe-Thr-Tyr-D-Ala-Glu-Leu-Gln-D-Arg-Leu-Gln-OH] (H-FVPIFTY[dA]ELQ[dR]LQ-OH) | 6.03 nM | 7.09
CC[C@H](C)[C@H](NC(=O)[C@@H]1CCCN1C(=O)[C@@H](NC(=O)[C@@H](N)Cc1ccccc1)C(C)C)C(=O)N[C@@H](Cc1ccccc1)C(=O)N[C@H](C(=O)N[C@@H](Cc1ccc(O)cc1)C(=O)NCC(=O)N[C@@H](CCC(=O)O)C(=O)N[C@@H](CC(C)C)C(=O)N[C@@H](CCC(N)=O)C(=O)N[C@H](C)C(=O)N[C@@H](CC(C)C)C(=O)N[C@@H](CCC(N)=O)C(=O)O)[C@@H](C)O [[D-Ala^12, Leu^13]pMOT(1-14)] (H-FVPIFTYGELQ[dA]LQ-OH) | 8.91 nM | 7.29
CC[C@H](C)[C@H](NC(=O)[C@@H]1CCCN1C(=O)[C@@H](NC(=O)[C@@H](N)Cc1ccccc1)C(C)C)C(=O)N[C@@H](Cc1ccccc1)C(=O)N[C@H](C(=O)N[C@@H](Cc1ccc(O)cc1)C(=O)NCC(=O)N[C@@H](CCC(=O)O)C(=O)N[C@@H](CC(C)C)C(=O)N[C@@H](CCC(N)=O)C(=O)N[C@H](CCCNC(=N)N)C(=O)N[C@@H](CC(C)C)C(=O)N[C@@H](CCC(N)=O)C(=O)N[C@@H](CCC(=O)O)C(=O)N[C@@H](CCCCN)C(=O)N[C@@H](CCC(=O)O)C(=O)N[C@@H](CCCNC(=N)N)C(=O)N[C@@H](CC(N)=O)C(=O)N[C@@H](CCCCN)C(=O)NCC(=O)N[C@@H](CCC(N)=O)C(=O)O)[C@@H](C)O [[D-Arg^12, Leu^13]pMOT(1-22)] | 1.66 nM | 7.67
CC[C@H](C)[C@H](NC(=O)[C@@H]1CCCN1C(=O)[C@@H](NC(=O)[C@@H](N)Cc1ccccc1)C(C)C)C(=O)N[C@@H](Cc1ccccc1)C(=O)N[C@H](C(=O)N[C@@H](Cc1ccc(O)cc1)C(=O)NCC(=O)N[C@@H](CCC(=O)O)C(=O)N[C@@H](CC(C)C)C(=O)N[C@@H](CCC(N)=O)C(=O)N[C@H](CCCNC(=N)N)C(=O)N[C@@H](CC(C)C)C(=O)N[C@@H](CCC(N)=O)C(N)=O)[C@@H](C)O [[D-Arg^13, Leu^13]pMOT(1-14) amide] (H-FVPIFTYGELQ[dR]LQ-NH2) | 2.45 nM | 7.50
